Assay results taken from US10172879B2, “Nanocomplexes for co-delivering a drug and siRNA and uses thereof” (D.R.NANO CO., LTD, priority 2015, dated 2019).
d = 2'-deoxy (DNA)

Assay: Serum stability assay (50% serum, 37° C., gel electrophoresis)
Format: in vitro ADME, bovine
Conditions: 50% serum media at 37° C., 0-24 h; HMplex N/P=4
Experimental: In vitro cytotoxicity studies of HMplexes were performed against normal cells (MRC-5 and NIH-3T3) and cancer cells (MDA-MB-231) using the colorimetric MTT assay. Cells were treated with HMplexes at various concentrations for 4 h and then incubated in a serum-free medium for another 44 h after washing twice with cold PBS (pH 7.4). After washing with PBS, the cells were treated with MTT reagents and the absorbance at 540 nm was measured with a microplate reader (Spectra Max 340, Molecular Devices, Sunnyvale, Calif., USA). The complex stability of HMplexes was evaluated by a heparin polyanion competition assay and a serum stability assay. For the heparin polyanion competition assay, HMplexes containing 1 μg siRNA were incubated with varying amounts of heparin (0-200 μg) for 30 min at room temperature and then subjected to 2% agarose gel electrophoresis. The decomplexed siRNA was detected with SYBR Gold staining. For serum stability studies, HMplexes or naked siRNA were incubated in 50% FBS/PBS (pH 7.4) at 37° C. for predetermined time periods (0-24 h). Aliquots from each sample were analyzed by 2% agarose gel electrophoresis and visualized with SYBR Gold.

## free siRNA: Custom Bcl-2 siRNA (sense Seq ID No. 1-dTdT; antisense Seq ID No. 2-dTdT), uncomplexed (sense GUACAUCCAUUAUAAGCUG; antisense CAGCUUAUAAUGGAUGUAC; RNA, 3' dTdT, backbone not given here)
  degradation of siRNA in serum: completely disappeared at 24 h
